Biological target: CB1 (mutant) (Homo sapiens, UniProt P21554)
Test: R-SAT functional receptor assay, CB1 (mutant, truncated after amino acid 417)
Type: cell-based
Settings: Appendix A, R-SAT CB1; for IC50: receptor form (mutant or wild-type) not stated, read-out: pIC50 (converted); for Emax: receptor form not stated, relative to SR141716 (100%), read-out: % Inhibition

Chain of CB1 (mutant) (P21554 1-417, change not shown): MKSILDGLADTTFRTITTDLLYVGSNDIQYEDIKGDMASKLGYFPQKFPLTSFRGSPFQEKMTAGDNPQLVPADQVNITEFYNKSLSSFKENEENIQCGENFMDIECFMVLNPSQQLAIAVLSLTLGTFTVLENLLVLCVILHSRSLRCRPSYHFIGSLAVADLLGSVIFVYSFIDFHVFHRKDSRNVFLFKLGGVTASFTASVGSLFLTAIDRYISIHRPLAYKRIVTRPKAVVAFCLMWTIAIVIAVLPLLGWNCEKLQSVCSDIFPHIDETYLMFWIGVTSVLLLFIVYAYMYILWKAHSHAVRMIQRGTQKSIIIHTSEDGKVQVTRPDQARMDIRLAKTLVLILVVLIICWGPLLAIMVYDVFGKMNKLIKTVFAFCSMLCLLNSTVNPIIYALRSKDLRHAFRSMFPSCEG

CCCCC(=O)c1ccc2c(c1)N=C(C1CCCCC1)c1ccccc1S2
IC50: 50.1 nM | Emax: 37%

CCCC1=Nc2cc(C(=O)NCCC3=CCCCC3)ccc2Sc2ccccc21
IC50: 50.1 nM | Emax: 118%

CCCC1=Nc2cc(C(=O)NCCCOCC)ccc2Sc2ccccc21
IC50: 50.1 nM | Emax: 92%

CCCCNC(=O)c1ccc2c(c1)N=C(c1ccc(Cl)cc1)c1ccccc1S2(=O)=O
IC50: 63.1 nM | Emax: 106%

CCCNC(=O)c1ccc2c(c1)N=C(c1ccccc1Cl)c1ccccc1S2
IC50: 79.4 nM | Emax: 78%

O=C(c1ccc2c(c1)N=C(c1ccccc1F)c1ccccc1S2)N1CCCCC1
IC50: 79.4 nM | Emax: 73%

N#Cc1ccc(C2=Nc3cc(C(=O)NCc4ccccn4)ccc3Sc3ccccc32)cc1
IC50: 79.4 nM | Emax: 99%

O=C(NN1CCOCC1)c1ccc2c(c1)N=C(c1cccc(Cl)c1)c1ccccc1S2
IC50: 79.4 nM | Emax: 80%

CCCC1=Nc2cc(C(=O)NC(C)C34CC5CC(CC(C5)C3)C4)ccc2Sc2ccccc21 (stereo not drawn)
IC50: 79.4 nM | Emax: 112%

CCOCCNC(=O)c1ccc2c(c1)N=C(c1ccc(OC)cc1)c1ccccc1S2
IC50: 79.4 nM | Emax: 90%

CC(C)CNC(=O)c1ccc2c(c1)N=C(c1ccc(Cl)cc1Cl)c1ccccc1S2
IC50: 79.4 nM | Emax: 87%

C=C(/C=C\C1=CN=C(CCC)c2ccccc2S1)C(=O)NC1CCCC1
IC50: 79.4 nM | Emax: 109%

CCONC(=O)c1ccc2c(c1)N=C(c1cccc(Cl)c1)c1ccccc1S2
IC50: 79.4 nM | Emax: 90%

O=C(NCCc1cccnc1)c1ccc2c(c1)N=C(c1ccccc1F)c1ccccc1S2
IC50: 79.4 nM | Emax: 110%

CCCCN(C)C(=O)c1ccc2c(c1)N=C(c1ccc(OC)cc1)c1ccccc1S2
IC50: 100 nM | Emax: 97%

O=C(NC1CCCCNC1=O)c1ccc2c(c1)N=C(c1ccc(Cl)cc1)c1ccccc1S2 (stereo not drawn)
IC50: 100 nM | Emax: 81%

CCCCN(CCCNC(=O)c1ccc2c(c1)N=C(CCC)c1ccccc1S2)Cc1ccccc1
IC50: 100 nM | Emax: 99%

O=C(NNC(O)c1ccc2c(c1)N=C(c1cccc(Br)c1)c1ccccc1S2)c1ccccc1 (stereo not drawn)
IC50: 100 nM | Emax: 76%

COCCNC(=O)c1ccc2c(c1)N=C(c1ccccc1F)c1ccccc1S2
IC50: 100 nM | Emax: 99%

CCCCN(C)C(=O)c1ccc2c(c1)N=C(c1ccc(Cl)s1)c1ccccc1S2
IC50: 100 nM | Emax: 87%

CCCC1=Nc2cc(C(=O)NC(C)CC)ccc2Sc2ccccc21 (stereo not drawn)
IC50: 100 nM | Emax: 105%

Cc1ccsc1C1=Nc2cc(C(=O)NCc3cccnc3)ccc2Sc2ccccc21
IC50: 100 nM | Emax: 102%

Cc1cccnc1C1=Nc2cc(C(=O)NCc3cccs3)ccc2Sc2ccccc21
IC50: 100 nM | Emax: 97%

Cc1ccsc1C1=Nc2cc(C(=O)NCCc3ccncc3)ccc2Sc2ccccc21
IC50: 100 nM | Emax: 101%

CCCCNC(=O)c1ccc2c(n1)N=C(c1ccccc1)c1ccccc1S2
IC50: 12.6 nM | Emax: 98%

O=C(NCc1ccccn1)c1ccc2c(c1)N=C(N1CCCCC1)c1ccccc1S2
IC50: 158 nM | Emax: 78%

O=C(NN1CCCC1)c1ccc2c(c1)N=C(c1ccc(F)cc1)c1ccccc1S2
IC50: 158 nM | Emax: 92%

CCCC1=NC2=C(CCC(C(=O)NCCc3ccc(OCC)cc3)=C2)Sc2ccccc21
IC50: 158 nM | Emax: 102%

CCCC1=Nc2cc(C(=O)NCCCSC3CCCCC3)ccc2Sc2ccccc21
IC50: 158 nM | Emax: 95%

COc1ccccc1C1=Nc2cc(C(=O)NCC(C)C)ccc2Sc2ccccc21
IC50: 158 nM | Emax: 91%

O=C(NN1CCCCC1)c1ccc2c(c1)N=C(c1ccccc1)c1ccccc1O2
IC50: 158 nM | Emax: 57%

CCOCCNC(=O)c1ccc2c(c1)N=C(c1ccc(C(=O)OCC)cc1)c1ccccc1S2
IC50: 158 nM | Emax: 77%

CCCC1=Nc2cc(C(=O)N3CCN(c4cc(C)ccc4C)CC3)ccc2Sc2ccccc21
IC50: 158 nM | Emax: 90%

O=C(NC1CCCC1)c1ccc2c(c1)N=C(c1ccccn1)c1ccccc1S2
IC50: 158 nM | Emax: 81%

CCCCN(C)C(=O)c1ccc2c(c1)N=C(c1sccc1C)c1ccccc1S2
IC50: 158 nM | Emax: 72%

COc1ccc(C2=Nc3cc(C(=O)NCc4ccc(S(N)(=O)=O)cc4)ccc3Sc3ccccc32)cc1
IC50: 158 nM | Emax: 84%

CCCC1=NC2=C(CCC(C(=O)NCCN(CC)CCNc3cc(Cl)ccc3C)=C2)Sc2ccccc21
IC50: 158 nM | Emax: 113%

CCCC1=Nc2cc(C(=O)NN3CCCCC3)ccc2Sc2ccccc21
IC50: 158 nM | Emax: 80%

Cc1ccsc1C1=Nc2cc(C(=O)NCc3ccncc3)ccc2Sc2ccccc21
IC50: 158 nM | Emax: 92%

O=C(NCCc1cccnc1)c1ccc2c(c1)N=C(c1ccccc1Cl)c1ccccc1S2
IC50: 158 nM | Emax: 76%

O=C(NN1CCOCC1)c1ccc2c(c1)N=C(c1cccc(F)c1)c1ccccc1S2
IC50: 200 nM | Emax: 63%

CC(C)CC1=Nc2cc(C(=O)NN3CCCCC3)ccc2Sc2ccccc21
IC50: 200 nM | Emax: 90%

O=C(NN1CCCC1)c1ccc2c(c1)N=C(c1ccccc1F)c1ccccc1S2
IC50: 200 nM | Emax: 69%

O=C(c1ccc2c(c1)N=C(N1CCCCC1)c1ccccc1S2)N1CCCCC1
IC50: 200 nM | Emax: 89%

CCCC1=Nc2cc(C(=O)NCCOC)ccc2Sc2ccccc21
IC50: 200 nM | Emax: 107%

CCCCCC1=Nc2cc(C(=O)N3CCN(c4ccc(C)cc4C)CC3)ccc2Sc2ccccc21
IC50: 200 nM | Emax: 107%

CCONC(=O)c1ccc2c(c1)N=C(c1cccc(F)c1)c1ccccc1S2
IC50: 200 nM | Emax: 81%

CONC(=O)c1ccc2c(c1)N=C(c1ccc(Cl)cc1F)c1ccccc1S2
IC50: 200 nM | Emax: 69%

O=C(NNCc1ccccc1)c1ccc2c(c1)N=C(c1ccc(Cl)cc1)c1ccccc1S2
IC50: 200 nM | Emax: 66%

CCONC(=O)c1ccc2c(c1)N=C(c1sccc1C)c1ccccc1S2
IC50: 200 nM | Emax: 77%

CCONC(=O)c1ccc2c(c1)N=C(c1ccc(Cl)cc1F)c1ccccc1S2
IC50: 200 nM | Emax: 87%

O=C(Cc1ccccc1)NNC(=O)c1ccc2c(c1)N=C(N1CCCCC1)c1ccccc1S2
IC50: 200 nM | Emax: 69%

CCCC1=Nc2cc(C(=O)N3CCC(C(=O)OCC)CC3)ccc2Sc2ccccc21
IC50: 200 nM | Emax: 108%

O=C(NCCc1cccnc1)c1ccc2c(c1)N=C(c1ccc(Cl)cc1Cl)c1ccccc1S2
IC50: 200 nM | Emax: 74%

O=C(NCc1cccs1)c1ccc2c(c1)N=C(c1ccccc1Cl)c1ccccc1S2
IC50: 200 nM | Emax: 87%

CCCC1=Nc2cc(C(=O)N3CCN(c4ccc(F)cc4)CC3)ccc2Sc2ccccc21
IC50: 251 nM | Emax: 108%

O=C(NC1CCCCNC1=O)c1ccc2c(c1)N=C(c1ccc(F)cc1)c1ccccc1S2 (stereo not drawn)
IC50: 251 nM | Emax: 83%

CCCCNC(=O)c1ccc2c(c1)N=C(c1ccccc1OC)c1ccccc1S2
IC50: 251 nM | Emax: 80%

O=C(NN1CCOCC1)c1ccc2c(c1)N=C(c1ccc(Cl)cc1)c1ccccc1S2
IC50: 251 nM | Emax: 75%

CCCCCC1=Nc2cc(C(=O)NN3CCCCC3)ccc2Sc2ccccc21
IC50: 251 nM | Emax: 100%
